Laboratory results from patent US8765729B2, “Cancer therapy” (Aeolus Sciences, Inc., priority 2001, dated 2014).

Columns and labels:
[1] = SOD activity (cytochrome C method); format: biochemical
From the text: FIGS. 1A-1H show the structures of certain generic and specific definitions of compounds suitable for use in the present invention. With reference to FIG. 1C, mimetics of the invention can be of Formula I or Formula II, or dimeric forms thereof, an example of a dimeric form being shown in FIG. 1D. With reference to FIG. 1H, the SOD activities of certain of the depicted compounds are shown in Table 1 (as measured by the cytochrome C method): […]

B16 melanoma tumor = B16 melanoma tumor growth in mice treated with SOD mimetic; format: in vivo; conditions: 6 mg/kg i.p.
Description: FIGS. 2A-2C. (FIG. 2A) B16 melanoma tumor treated with SOD mimetic. The mimetic was 10113 at a dose of 6 mg/kg given intraperitoneally qd for 5 days. (FIG. 2B) Mammary adenocarcinoma treated with SOD mimetic. 10113 was given intraperitoneally at a dose of 6 mg/kg/day for 16 days. Radiation therapy (RT), 21 Gy, was given on day 8 or 9. (FIG. 2C) Fischer 344 rats with subcutaneously implanted R3230 AC mammary adenocarcinomas received Radiation treatment (21 Gy Day 1), AEOL 10113 (6 mg/kg/day IP Day 1 to 20), the combination Radiation and AEOL 10113 (as above), or Control treatment.
The effect of the MnTE-2-PyP (manganese(III) tetrakis(N-ethylpyridinium-2-yl)porphyrin) on tumor growth and radiation response in two tumor models has been tested. […] The effect of the SOD mimetic. MnTE-2-PyP, on tumor growth and radiation response has been tested in a rat model.

[2] = tested on: radiation-induced lung injury; assay: Radiation-induced lung injury in rats (28 Gy right hemithoracic irradiation); format: in vivo
Description: AEOL 10113 was tested (6 mg/kg/day for 5 days beginning on the day of irradiation) in a rat model of radiation-induced lung injury as assessed by breathing rate (animals with lung injury have a more rapid respiration rate), and chemical and microscopic measures of fibrosis. During the follow-up period of 6 months, 4 of the 9 rats receiving radiation only developed severe respiratory distress and were euthanized. In the group of rats treated with radiation plus AEOL 10113, only 1 of the 9 rats developed respiratory distress and was euthanized. Breathing rate data were analyzed on a last observation carried forward (LOCF) data set, in which the last observation for rats euthanized due to respiratory distress was imputed to subsequent weeks. There was a significant (log ranks p=0.0011) delay (approximately 3.4 weeks) in the development of radiation-induced lung injury (assessed by an increase in breathing rate) in animals treated with AEOL 10113 (FIG. 12).
Six months after radiation all remaining animals were euthanized. At that time, the right upper lung lobe was removed and processed to quantify the extent of lung fibrosis based on hydroxyproline content.
Radiation-induced lung fibrosis was also assessed using histopathology (FIG. 13B). Lungs were fixed in 10% neutral buffered formalin. Five-micron thick sections were stained with hematoxylin and eosin or Masson trichrome and examined microscopically. Slides were systematically scanned in a microscope using a ×10 objective. Each successive field was individually assessed for severity of interstitial fibrosis and allotted a score of between 0 and 8.
Studies were performed to evaluate changes in body weight after irradiation and to assess the radioprotective effect of MnTE-2-PyP on radiation-induced pulmonary injury in rats. The body weight and lung function of the animals were measured every two weeks after irradiation in three groups of animals: control, radiation alone and radiation+MnTE-2-PyP. A single dose of 28 Gy was delivered to right hemithorax and 6 mg/kg of MnTE-2-PyP was given daily i.p. for 5 days after irradiation. Unrestrained rats were placed in a 1500 ml whole body plethysmograph tube connected to a pressure transducer for a breathing rate measurements. […] The mean of five measurements was performed on each animal.

CC[n+]1ccccc1-c1c2nc(c(-c3cccc[n+]3CC)c3ccc([n-]3)c(-c3cccc[n+]3CC)c3nc(c(-c4cccc[n+]4CC)c4ccc1[n-]4)C=C3)C=C2.[Mn+3] [Compound 10113, manganese(III)tetrakis(N-ethylpyridinium-2-yl)porphyrin]
SOD activity [1]: 10,648 U/mg | inhibition of tumor growth (B16 melanoma tumor; mice with B16 melanoma): significant inhibition of tumor growth | Tumor doubling time (B16 melanoma tumor; control group 2 days): 4 days | delay in the development of radiation-induced lung injury (increase in breathing rate) ([2]; 6 mg/kg/day for 5 days, LOCF, log ranks p=0.0011): approximately 3.4 weeks | reduction of the magnitude of the increase in breathing rate at endpoint ([2]; 6 mg/kg/day for 5 days, average): 34% | hydroxyproline content of upper right lobe after radiation ([2]; 6 months after 28 Gy, wet and dry lung): significant reduction (p<0.05) | recovery of body weight loss after hemithoracic irradiation ([2]; 28 Gy, 6 mg/kg daily i.p. for 5 days): significantly better recovery of the body weight loss | hydroxyproline content of right upper lobe vs control ([2]; AEOL 10113 without radiation): no differences | radiation-induced lung fibrosis by histopathology ([2]; fibrosis score 0-8, FIG. 13B): reduced radiation-induced lung fibrosis | rats that developed respiratory distress and were euthanized ([2]; of 9 rats, radiation plus AEOL 10113, 6 months, radiation only 4 of 9): 1
